Source: patent US5700446A, “Synthesis of ferrocenyl phenyltropane analogs and their radio-transformation to technetium neuroprobes for mapping monoamine reuptake sites” (Neuro Imaging Technologies, LLC, priority 1996, dated 1997)

How the values were obtained:
[1] = target: T1, serotonin transporter (Rattus norvegicus, UniProt P31652); test: Radioreceptor binding assay, serotonin transporter ([3H]paroxetine), rat frontoparietal cerebral cortex membranes; details: [3H]paroxetine 0.2 nM, 60 min at 20° C., Tris buffer pH 7.4, rat frontoparietal cortex; ±SEM; read-out: Serotonin Transporter (5-HTT) (Ki)
T1 construct: rat brain corpus striatum (for the dopamine transporter) or frontoparietal cerebral cortex (for the serotonin and norepinephrine transporters); from tissue; host or cells: rat frontoparietal cerebral cortex, crude membrane fraction
T1 sequence (P31652 whole entry): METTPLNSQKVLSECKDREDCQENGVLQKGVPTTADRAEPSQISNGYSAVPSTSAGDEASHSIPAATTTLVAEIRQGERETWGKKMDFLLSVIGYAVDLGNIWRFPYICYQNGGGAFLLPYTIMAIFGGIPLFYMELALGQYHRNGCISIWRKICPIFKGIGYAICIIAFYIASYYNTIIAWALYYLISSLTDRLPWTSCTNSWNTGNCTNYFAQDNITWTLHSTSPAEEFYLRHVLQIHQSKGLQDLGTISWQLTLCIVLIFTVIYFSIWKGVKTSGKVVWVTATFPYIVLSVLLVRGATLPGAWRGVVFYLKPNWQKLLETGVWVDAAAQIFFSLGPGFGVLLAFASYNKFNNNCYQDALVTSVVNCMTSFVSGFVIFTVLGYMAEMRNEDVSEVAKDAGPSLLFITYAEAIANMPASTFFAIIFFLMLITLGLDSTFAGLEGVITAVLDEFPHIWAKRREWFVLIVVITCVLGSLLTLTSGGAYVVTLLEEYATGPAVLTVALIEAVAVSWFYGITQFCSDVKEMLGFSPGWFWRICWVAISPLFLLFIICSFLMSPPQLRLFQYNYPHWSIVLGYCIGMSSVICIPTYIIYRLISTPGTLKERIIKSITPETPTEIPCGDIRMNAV

[2] = target: T2, dopamine transporter (Rattus norvegicus, UniProt P23977); test: Radioreceptor binding assay, dopamine transporter ([3H]GBR-12935), rat brain corpus striatum membranes; details: for Ki: [3H]GBR-12935 0.4 nM, 45 min at 4° C., Tris buffer pH 7.4, rat corpus striatum, ±SEM, read-out: Dopamine Transporter (DAT) (Ki); for DAT/5-HTT Selectivity: ratio of Ki for the dopamine transporter to the Ki for the serotonin transporter
T2 construct: crude membrane fraction of homogenates of rat brain corpus striatum (for the dopamine transporter); from tissue; host or cells: rat brain corpus striatum, crude membrane fraction
T2 sequence (P23977 whole entry): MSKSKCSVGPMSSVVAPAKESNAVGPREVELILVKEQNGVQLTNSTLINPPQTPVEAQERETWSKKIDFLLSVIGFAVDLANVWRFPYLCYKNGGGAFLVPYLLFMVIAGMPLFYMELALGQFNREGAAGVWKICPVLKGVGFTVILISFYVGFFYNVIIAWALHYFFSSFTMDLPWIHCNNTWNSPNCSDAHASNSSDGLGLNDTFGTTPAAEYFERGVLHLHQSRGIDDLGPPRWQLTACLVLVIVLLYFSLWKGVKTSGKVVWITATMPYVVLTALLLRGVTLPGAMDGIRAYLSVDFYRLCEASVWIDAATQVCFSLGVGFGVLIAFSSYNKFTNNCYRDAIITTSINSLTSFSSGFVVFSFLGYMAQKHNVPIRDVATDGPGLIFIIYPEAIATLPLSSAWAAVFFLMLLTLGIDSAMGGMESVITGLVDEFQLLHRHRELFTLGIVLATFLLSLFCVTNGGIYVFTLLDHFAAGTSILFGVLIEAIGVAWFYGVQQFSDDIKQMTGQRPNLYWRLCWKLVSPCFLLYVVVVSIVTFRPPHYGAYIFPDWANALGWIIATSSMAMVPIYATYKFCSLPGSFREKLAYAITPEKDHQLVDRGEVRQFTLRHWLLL

With “3β-(4-Chlorophenyl)-2β-tricarbonylrheniumcyclopentadienylcarboxymethyl)tropane [RBI-219]” the Ki [1] was 11.9 ± 1.7 nM, the Ki [2] was 4.41 ± 0.76 nM and the “DAT/5-HTT Selectivity” value [2] was 0.37.

“3β-(4-iodophenyl)-2β-(tricarbonylrheniumcyclopentadienylcarboxymethyl)tropane [RBI-211]” was tested, and the Ki [1] was 34.6 ± 3.4 nM, the Ki [2] was 7.22 ± 1.06 nM and the “DAT/5-HTT Selectivity” value [2] was 0.21.

In the case of “N-(tricarbonylmanganesecyclopentadienylbutan-1-one-4-yl)-2β-carbomethoxy-3β-(4-chlorophenyl)nortropane [RBI-233]”, the Ki [1] is reported as 0.84 ± 0.06 nM, the Ki [2] is reported as 1.67 ± 0.39 nM and the “DAT/5-HTT Selectivity” value [2] is reported as 2.

In the case of “N-(tricarbonylrheniumcyclopentadienylbutan-1-one-4-yl)-2β-carbomethoxy-3β-(4-chlorophenyl)nortropane [RBI-235]”, the Ki [1] is reported as 0.37 ± 0.04 nM, the Ki [2] is reported as 1.29 ± 0.1 nM and the “DAT/5-HTT Selectivity” value [2] is reported as 3.49.

With “N-(tricarbonylrheniumcyclopentadienylcarboxypropyl)-2β-carbomethoxy-3β-(4-chlorophenyl)nortropane [RBI-232]” the Ki [1] was 0.56 ± 0.08 nM, the Ki [2] was 2.66 ± 0.33 nM and the “DAT/5-HTT Selectivity” value [2] was 4.75.
